In US10449183B2, “Methods for inhibiting preterm labor and uterine contractility disorders and preventing cervical ripening” (DIGNITY HEALTH, priority 2010, dated 2019):
“Also recorded” adds a separate entry of the source. Read-outs that look alike come from different tables or passages of the source.

Tests used:
myometrium = conditions: P4 at concentrations equivalent to those present in the placenta and uterus; cited from earlier work
[1] = Plasma progesterone levels in pregnant rats after various treatments; assay type: in vivo
Protocol: FIG. 6 depicts plasma levels of progesterone following various treatments. Plasma progesterone (P4) levels in pregnant rats at day 18 and 21 days of gestation after treatment with P4 vaginal gel (15 mg bid), P4 injections (4 mg subcutaneous daily), topical P4 in fish oil (15 mg bid) and controls (Ctr) treated with vehicles. FIG. 24 depicts pharmokinetic data related to plasma serum levels after topical delivery in rats following various treatments on day 19 of gestation (single treatment only).

pregnant rats = assay: Time of delivery of timed-pregnant rats (hours after 8 a.m. of day 22 of gestation); assay type: in vivo, Sprague-Dawley rats; conditions: for delay of delivery compared to vehicle control: from day 13
Source text: (§1) Nonpregnant and timed-pregnant Sprague-Dawley rats (200-250 g) from Charles-River Laboratories (Wilmington, Mass., USA) were delivered to animal care facilities on day 12 of gestation (day 1 being the day when a sperm plug was observed). The animals were housed separately, with free access to food and water and maintained on a constant 12-hour light-dark cycle. Control pregnant rats were spontaneously delivering on day 22 and 23 of gestation. For the measurements with the collascope the animals were anaesthetized (interperitoneal (i.p). injection) with a combination of xylazine (Gemini, Burns Veterinary Supply Inc, Rockville Center, N.Y., USA) and ketamine HCl (Ketaset; Fort Dodge Laboratories Inc, Fort Dodge, Iowa, USA). The animals were randomly allocated to one of the groups and sacrificed by carbon dioxide inhalation on day 3, 5, 7 and 10 postpartum or on day 25 of pregnancy in the groups with delayed delivery. All procedures were approved by the Animal Care and Use Committee of the St. Joseph's Hospital and Medical Center in Phoenix.
(§2) Prior to any treatment LIF measurements were made in control rats throughout pregnancy and postpartum to estimate the LIF profile during gestation (see FIG. 1). Pregnant rats (N=6/group) were treated (see FIG. 2), when not otherwise mentioned (see FIG. 3), from day 13 of pregnancy until delivery. Single daily treatments were performed at 8 a.m. and twice a day treatments at 8 a.m. and 8 p.m. All single injections (4 mg P4, 10 mg 17P, 2 mg promegestone (R5020)) were by the subcutaneous route (s.c.) in sesame oil (0.2 ml), which was also used for the controls. Vaginal gels were applied twice a day with a blunt ball-top needle deep into the vagina. Crinone was used for the P4 vaginal group (equivalent volumes of Crinone were used for 2-15 mg P4/treatment), all data presented show the results of the highest dose (total daily dose of 30 mg P4=⅓ of a applicator of 8% Crinone that contains 90 mg P4). For the vaginal promegestone (R5020) group micronized promegestone (R5020) (1 mg/treatment) was mixed into 0.18 ml of Replens. The control rats for the vaginal groups were treated with Replens (0.18 ml/treatment). For oral P4 treatments (15 mg, bid, vehicle sesame oil or H2O, volume 1 ml) gavage was used. For topical P4 treatment (15 mg, bid, P4 in 1 ml sesame oil, fish oil or in Replens) the drug was applied on the back of animals that were shaved on day 13, 17 and 21. In some animals (N=6) RU-486 (3 mg in 0.2 ml sesame oil) was injected subcutaneously once on day 16 of gestation.
Times of delivery (see also FIG. 4) of controls and various treatment groups were determined as hours after 8 a.m. of day 22 of gestation (FIG. 5). The expulsion of one pup was defined as delivery.
The cervical LIFs obtained at different times of gestation (FIG. 1) were compared using one-way analysis of variance (ANOVA) and multiple pairwise comparison procedures (Holm-Sidak). Student's t-test was used to compare the LIF results of a treatment group to its specific control group at any time in gestation and postpartum and also to determine the differences in delivery times (FIGS. 2, 3 and 5). A two-tailed probability value of P<0.05 was considered statistically significant.
FIG. 15 depicts delay of delivery times in timed pregnant rats treated with progesterone (P4) with different routes and vehicles. Treatment was started on day 13 of gestation and continued until delivery of pups or until delivery was blocked at […] (day 25) past day 22 of gestation. 8 am on day 22 is noted as hour 0 and delay is compared to control group treated only with vehicle. Treatment groups included: P4 in fish oil (vaginal, nasal, injection and topical groups), P4 in cocoa butter (rectal) and P4 in sesame oil (oral). All treatment groups received a total daily dose of 30 mg P4/day except the nasal and subcutaneous injection group which received 1 mg/day and 4 mg/day, respectively. […]

cervix of pregnant rats = assay: Cervical ripening assessed in vivo by collagen light-induced fluorescence (LIF) with the collascope; set-up: species or system Sprague-Dawley rats
Source text: as §1, §2
The amount of cervical collagen was evaluated in vivo (only in group subcutaneously P4, vaginal P4, subcutaneously 17P, vaginal promegestone (R5020), subcutaneously RU-486) by measurement of the auto-fluorescent properties of cross-linked collagen with a new prototype of an instrument, termed collascope (Reproductive Research Technologies, Houston, Tex., USA), as used previously with an earlier prototype.
After insertion of a small speculum into the vagina of the anesthetized animal, the optical probe of the collascope was placed on the surface of the exocervix. […] The exposure time for excitation was 100 msec. The average of 20 measurements of the detected fluorescent intensity (photon count) at 390 nm was used for each animal at any given time. Measurements of cervical light-induced fluorescence (LIF) were performed on nonpregnant animals once and in pregnant animals every other day starting at day 13 of gestation until delivery and on postpartum day 3 and/or postpartum day 5 (see FIGS. 2 and 3), and for some animals also on postpartum days 7 and 10 (see FIGS. 1 and 3).
The cervical LIFs obtained at different times of gestation (FIG. 1) were compared using one-way analysis of variance (ANOVA) and multiple pairwise comparison procedures (Holm-Sidak). […]

[2] = cited from earlier work
[3] = single treatment only on day 19 of gestation

Which results are given for `CC(=O)[C@H]1CC[C@H]2[C@@H]3CCC4=CC(=O)CC[C@]4(C)[C@H]3CC[C@]12C` [P4, progesterone]?
spontaneous myometrial contractility (myometrium): inhibits spontaneous myometrial contractility; plasma circulation levels of progesterone, topical compared to vaginal or subcutaneous injection ([1]; day 21, topical P4 in fish oil 15 mg bid vs vaginal gel 15 mg bid or 4 mg s.c. daily): highly effective in increasing plasma circulation levels of progesterone; persistence of raised plasma levels following administration ([1]; single topical treatment on day 19 of gestation): persist for 1, 2, or more days; plasma levels after topical delivery [1, 3]: increase markedly; plasma levels after topical delivery compared with subcutaneous injection [1, 3]: even higher than subcutaneous injection; delay of delivery compared to controls (pregnant rats; P4 30 mg/day in DHA (docosahexanoic acid) from day 20): significant delays when compared to controls; delay of delivery compared to controls (pregnant rats; P4 30 mg/day in EPA (eicosapentanoic acid) from day 20): All treatment groups except EPA had significant delays; delay of delivery compared to controls (pregnant rats; P4 30 mg/day in GNC Triple Strength fish oil from day 20): significant delays when compared to controls; delay of delivery compared to controls (pregnant rats; P4 30 mg/day in Neptune Krill Oil from day 20): significant delays when compared to controls; delay of delivery compared to controls (pregnant rats; P4 30 mg/day in Nutrasea fish oil from day 20): significant delays when compared to controls; delay of delivery compared to controls (pregnant rats; P4 30 mg/day in Nutrasea+D fish oil from day 20): significant delays when compared to controls; delay of delivery compared to controls (pregnant rats; P4 30 mg/day in Omegasorb GNC fish oil from day 20): complete block of delivery; delay of delivery (pregnant rats; P4 in fish oil, s.c. or topical, all groups begun on days 19, 20, 21 or 22): significant delay of delivery; block of delivery (pregnant rats; P4 in fish oil, subcutaneous injection begun on day 21): complete block in all animals; block of delivery (pregnant rats; P4 in fish oil, topical application begun on day 19): complete block in all animals; delivery (pregnant rats; P4 in fish oil, treatment begun just prior to delivery on day 22): blocked or significantly delayed; effect on delivery (pregnant rats; oral P4 15 mg bid by gavage in sesame oil or H2O from day 13): Delivery was not changed; also recorded: no effect on time of delivery; delay of delivery compared to vehicle control (pregnant rats; rectal P4 in cocoa butter, 30 mg P4/day): significant delay of delivery; effect on delivery (pregnant rats; s.c. injection daily in sesame oil from day 13 (P4 4 mg, 17P 10 mg, R5020 2 mg)): inhibits delivery; also recorded: completely blocked delivery; also recorded: prevented delivery; also recorded: completely inhibited; also recorded: delivery is inhibited; delay of delivery compared to vehicle control (pregnant rats; subcutaneous injection of P4 in fish oil, 4 mg/day): significant delay of delivery; delay of delivery (pregnant rats; topical P4 15 mg bid in Omegasorb fish oil from day 19): significant delay of delivery; effect on delivery (pregnant rats; topical P4 15 mg bid in Replens from day 13): Delivery was not changed; also recorded: not at all; delay of delivery (pregnant rats; topical P4 15 mg bid in coconut oil from day 19): significant delay of delivery; delay of delivery (pregnant rats; topical P4 15 mg bid in corn oil from day 19): All groups but corn oil had significant delay of delivery; effect on delivery (pregnant rats; topical P4 15 mg bid in fish oil from day 13): inhibits delivery; also recorded: completely; delay of delivery (pregnant rats; topical P4 15 mg bid in olive oil from day 19): significant delay of delivery; effect on delivery (pregnant rats; topical P4 15 mg bid in sesame oil from day 13): inhibits delivery; also recorded: only partially; delay of delivery compared to vehicle control (pregnant rats; topical P4 in fish oil, 30 mg P4/day): significant delay of delivery; effect on delivery (pregnant rats; vaginal bid from day 13 (P4 15 mg as Crinone; R5020 1 mg in Replens)): Delivery was not changed; also recorded: failed to inhibit delivery; also recorded: no effect on cervical ripening and on delivery; also recorded: no significant effect on delaying term delivery; cervical LIF, day 25 (delayed delivery) in P4 injection group compared to control animals at day 21 (cervix of pregnant rats; P4 4 mg s.c. daily from day 13): no difference (P<0.05); cervical LIF / cervical ripening compared with vehicle controls (cervix of pregnant rats; P4 4 mg s.c. daily in sesame oil from day 13 of pregnancy): cervix is rigid; also recorded: significantly (P<0.05) higher; also recorded: longest effect on delaying cervical ripening; also recorded: also prevents further ripening on day 21; also recorded: can only delay, but not completely inhibit cervical ripening; also recorded: delayed but not entirely blocked during the final days of gestation; cervical LIF / cervical ripening compared with vehicle controls (cervix of pregnant rats; vaginal P4 15 mg bid (Crinone) from day 13): no significant differences (P>0.05); also recorded: no effect on cervical ripening; also recorded: no significant differences are observed at any time; half life ([2]; background statement): roughly 32 hours; half life ([2]; statement under advantages): about 30 minutes
